{"source": "patent US20260198495A1", "about": "“BINARY INSECTICIDE COMPOSITION AND USE THEREOF” (SHENYANG SINOCHEM AGROCHEMICALS R & D CO., LTD., priority 2022, published 2026)", "format_in_all_cases": "in vivo", "key": {"[1]": {"system": "3rd-instar larvae of Plutella xylostella", "assay": "Joint toxicity of I-72 + chlorpyrifos, leaf-disk dipping, Example 16, Table 16", "details": "3rd-instar larvae, cabbage leaf-disk dipping, 72 h, A = compound I-72, B = chlorpyrifos, read-out: LC50", "protocol": "Test target: 3rd-instar larvae of Plutella xylostella.\n(§1) Preparation of the pesticide solution: according to different test requirements, the test samples were accurately weighed respectively with an electronic analytical balance. The technical pesticides were dissolved in acetone, and then diluted with 0.1% Tween 80 water into a series of pesticide solutions with a certain concentration gradient according to the experimental design dosage.\nExperimental method: first, fresh cabbage leaves cultivated in the greenhouse were selected. The cabbage leaves were made into circular leaf disks with a diameter of 3 cm using a puncher and dipped in the prepared pesticide solution for 10 s in the order from low dosage to high dosage according to the experimental design. After natural air-drying in the shade, they were placed in a 9-cm-diameter Petri dish with filter paper, and uniform and healthy test insects were introduced, with 10 insects for each treatment and 3 replicates for each treatment. In addition, a blank control was set up.\n(§2) The treated test materials were placed in an observation room, and the temperature, humidity and illumination of the observation room could be adjusted as needed. […] Then, the co-toxicity coefficient of each ratio was calculated using the Sun Y-P method to evaluate the mixing effect (the same as in Example 1)."}, "[2]": {"system": "3rd-instar larvae of Pyrausta nubilalis Hubern", "assay": "Synergism assay (Bliss) of I-72 + cartap, monosultap, bisultap, Example 5, Table 5", "details": "Ostrinia nubilalis, 72 h, read-out: Mortality rate (%)", "protocol": "Test subject: 3rd-instar larvae of Pyrausta nubilalis Hubern, a sensitive strain reared indoors.\nTest conditions: temperature: 24-26° C., humidity: RH 60%, and illumination: L:D=14:10\nPreparation method: the test pesticides were accurately weighed respectively with an electronic analytical balance. After the two technical materials were respectively added into an appropriate amount of solvent and completely dissolved, the stock solution of the required concentration was prepared with water containing 0.1% Tween 80. The stock solutions of the two active ingredients were mixed in a certain ratio to prepare a mixed solution, which was then diluted respectively into a series of pesticide solutions with a certain concentration gradient according to the experimental design dosage.\nExperimental method: the artificial diet-pesticide film method was adopted. A standard clean 24-well culture plate was selected. 1 ml of artificial diet was added to each well. After the diet cooled and solidified, a quantitative amount of a pesticide solution was added to the culture plate using a continuous sampler, and then it was air-dried naturally in the shade. The standard test insects were introduced, with 1 insect in each well, a total of 48 insects. The treated test insects were placed in an observation room under certain conditions. The reaction of the test insects was regularly observed, and the number of dead and live insects was investigated 72 h later.\nThe evaluation method adopted was the Bliss method. This method is applicable to the qualitative screening of insecticidal compositions. According to the concept of independent joint action he proposed, Bliss believes that the theoretical mortality rate P when insecticides are used in combination can be calculated by the following formula: […]\nPm is the mortality rate (%) of the target when the first active ingredient is at a concentration of m; and Pn is the mortality rate (%) of the target when the second active ingredient is at a concentration of n.\nIf the actual mortality rate of the target after the two active ingredients are mixed at a certain concentration is greater than theoretical mortality rate P, it is determined that the two active ingredients have a synergistic effect when used in combination at the set concentration, and otherwise, they have an antagonistic effect."}, "[3]": {"system": "Nilaparvata lugens (Stal) nymphs", "assay": "Joint toxicity of I-72 + buprofezin, Example 52, Table 52", "details": "A = compound I-72, B = buprofezin, potted-seedling spraying, 72 hours, read-out: LC50", "protocol": "Test target: Nilaparvata lugens (Stal) nymphs, a sensitive strain reared indoors.\nas §1\nExperimental method: the activity of the mixture against the Nilaparvata lugens (Stal) nymphs was determined by adopting the potted-seedling spraying method. First, rice seedlings were planted in culture pots. Uniform spraying was performed with the pesticide solution in the order from low dosage to high dosage according to the experimental design, with 2 mL for each seedling. Then, Nilaparvata lugens nymphs of uniform size were transferred onto the rice seedlings, with 3 replicates for each treatment. In addition, a blank control was set up.\nas §2, with “needed. The number of dead and live insects was investigated 72 hours later.” for “needed.”, “effect,” for “effect (the same”, “1.” for “1).”"}, "[4]": {"system": "2nd-instar nymphs of Frankliniella occidentalis Pergande", "assay": "Joint toxicity of I-72 + carbosulfan, leaf spraying, Example 22, Table 22", "details": "2nd-instar nymphs, kidney bean leaf spraying, 48 h, A = compound I-72, B = carbosulfan, read-out: LC50", "protocol": "Test subject: 2nd-instar nymphs of Frankliniella occidentalis Pergande, a sensitive strain reared indoors.\nas §1, with “samples in Table 1” for “samples”\nTest conditions: temperature: 25-27° C., humidity: RH 60%, and illumination: L:D=14:10\nExperimental method: the spraying method was adopted. The kidney bean leaves cultivated in the greenhouse were selected, and the petioles were wrapped with moist degreased cotton and sealing film. They were evenly sprayed with the pesticide solution in the order from low dosage to high dosage according to the experimental design, placed in a 6-cm-diameter Petri dish with filter paper. After natural air-drying in the shade, the test insects were introduced, with 20 insects for each treatment and 3 replicates. In addition, a blank control was set up. […] The corrected mortality rate was calculated using the Abbott's formula, and the DPS data processing software was used for statistical analysis to calculate the toxicities (LC50 values) of the single test pesticides and the mixtures under the test ratios. […]"}}}
{"smiles": "CN(C(=O)c1ccc2c(c1)OC(F)(F)O2)c1cccc(C(=O)Nc2c(Br)cc(C(F)(C(F)(F)F)C(F)(F)F)cc2OC(F)F)c1F", "note": "[Compound I-72]", "values": [{"measurement": "LC50", "setting": "[1]", "value": 0.09, "unit": "µg/mL"}, {"measurement": "mortality at 0.1 µg/mL", "setting": "[2]; single agent 0.1 mg/L", "value": 22.9, "unit": "%"}, {"measurement": "mortality at 0.5 µg/mL", "setting": "[2]; single agent 0.5 mg/L", "value": 41.7, "unit": "%"}, {"measurement": "mortality at 1 µg/mL", "setting": "[2]; single agent 1 mg/L", "value": 60.4, "unit": "%"}, {"measurement": "mortality at 2 µg/mL", "setting": "[2]; single agent 2 mg/L", "value": 70.8, "unit": "%"}, {"measurement": "mortality at 5 µg/mL", "setting": "[2]; single agent 5 mg/L", "value": 87.5, "unit": "%"}, {"measurement": "LC50", "setting": "[3]", "value": 253, "unit": "µg/mL"}, {"measurement": "LC50", "setting": "[4]", "value": 2.15, "unit": "µg/mL"}]}
